Data taken from the NIST ThermoML archive (doi:10.1021/je060415l).
Where “and” joins values, the source holds several entries; their conditions need not be identical. Identical values can stand only once.

Experiment: isobaric coefficient of expansion
Settings: Liquid, expansion method

CO [methanol]
Settings | isobaric coefficient of expansion
196.17 K, 590 kPa | 0.00112 1/K
196.97 K, 80030 kPa | 0.000894 1/K
198.11 K, 590 kPa | 0.00112 1/K
199.3 K, 80030 kPa | 0.000894 1/K
200.13 K, 590 kPa | 0.00112 1/K
201.61 K, 80030 kPa | 0.000891 1/K
202.14 K, 590 kPa | 0.00112 1/K and 0.00113 1/K
203.94 K, 80030 kPa | 0.000891 1/K
204.09 K, 590 kPa | 0.00112 1/K
206.06 K, 590 kPa | 0.00112 1/K
206.3 K, 80030 kPa | 0.000888 1/K
208.02 K, 590 kPa | 0.00112 1/K
208.16 K, 20010 kPa | 0.00105 1/K
208.68 K, 80030 kPa | 0.000886 1/K
209.97 K, 590 kPa | 0.00112 1/K and 0.00114 1/K
210.16 K, 20010 kPa | 0.00104 1/K
210.17 K, 45100 kPa | 0.000966 1/K
211.07 K, 80030 kPa | 0.000883 1/K
211.93 K, 590 kPa | 0.00111 1/K and 0.00112 1/K
212.17 K, 20010 kPa | 0.00104 1/K
212.17 K, 45100 kPa | 0.000968 1/K
213.46 K, 80030 kPa | 0.00088 1/K
213.91 K, 590 kPa | 0.00112 1/K and 0.00111 1/K
214.17 K, 20010 kPa | 0.00104 1/K
214.17 K, 45100 kPa | 0.000963 1/K
215.9 K, 590 kPa | 0.00112 1/K
216 K, 80030 kPa | 0.000874 1/K
216.17 K, 20010 kPa | 0.00104 1/K
216.17 K, 45100 kPa | 0.000964 1/K
217.87 K, 590 kPa | 0.00112 1/K
218.17 K, 20010 kPa | 0.00104 1/K
218.18 K, 45100 kPa | 0.000965 1/K
218.19 K, 590 kPa | 0.00111 1/K
219.84 K, 590 kPa | 0.00112 1/K
220.16 K, 590 kPa | 0.00113 1/K
220.18 K, 20010 kPa | 0.00104 1/K
220.18 K, 45100 kPa | 0.000962 1/K
220.38 K, 80030 kPa | 0.000872 1/K
221.82 K, 590 kPa | 0.00111 1/K
222.14 K, 590 kPa | 0.00111 1/K
222.17 K, 20010 kPa | 0.00104 1/K
222.18 K, 45100 kPa | 0.000966 1/K
222.8 K, 80030 kPa | 0.000867 1/K
223.82 K, 590 kPa | 0.00112 1/K
224.15 K, 590 kPa | 0.00111 1/K
224.17 K, 20010 kPa | 0.00104 1/K
224.17 K, 45100 kPa | 0.00096 1/K
225.25 K, 80030 kPa | 0.000863 1/K
225.86 K, 590 kPa | 0.00111 1/K
226.15 K, 590 kPa | 0.00112 1/K
226.16 K, 45100 kPa | 0.000962 1/K
226.17 K, 20010 kPa | 0.00104 1/K
227.72 K, 80030 kPa | 0.000861 1/K
227.95 K, 590 kPa | 0.00112 1/K
228.15 K, 590 kPa | 0.00112 1/K
228.16 K, 20010 kPa | 0.00104 1/K
228.16 K, 45100 kPa | 0.000958 1/K
230.04 K, 590 kPa | 0.00111 1/K
230.16 K, 20010 kPa | 0.00105 1/K
230.17 K, 590 kPa | 0.00112 1/K
230.17 K, 45100 kPa | 0.000957 1/K
230.17 K, 80030 kPa | 0.00086 1/K
232.14 K, 590 kPa | 0.00112 1/K
232.17 K, 20010 kPa | 0.00104 1/K
232.17 K, 45100 kPa | 0.000959 1/K
232.18 K, 590 kPa | 0.00113 1/K
232.57 K, 80030 kPa | 0.000869 1/K
234.16 K, 590 kPa | 0.00113 1/K
234.17 K, 20010 kPa | 0.00103 1/K
234.17 K, 45100 kPa | 0.000956 1/K
234.19 K, 590 kPa | 0.00112 1/K
234.98 K, 80030 kPa | 0.000859 1/K
236.16 K, 590 kPa | 0.00112 1/K
236.17 K, 20010 kPa | 0.00104 1/K
236.17 K, 45100 kPa | 0.000953 1/K
236.18 K, 590 kPa | 0.00112 1/K
237.42 K, 80030 kPa | 0.00086 1/K
238.17 K, 590 kPa | 0.00112 1/K
238.17 K, 20010 kPa | 0.00103 1/K
238.17 K, 45100 kPa | 0.000949 1/K
239.85 K, 80030 kPa | 0.000855 1/K
240.17 K, 590 kPa | 0.00112 1/K
240.17 K, 45100 kPa | 0.000949 1/K
240.25 K, 20010 kPa | 0.00103 1/K
242.17 K, 590 kPa | 0.00112 1/K
242.17 K, 45100 kPa | 0.000942 1/K
242.25 K, 20010 kPa | 0.00103 1/K
242.29 K, 80030 kPa | 0.000853 1/K
244.18 K, 590 kPa | 0.00112 1/K
244.18 K, 45100 kPa | 0.000941 1/K
244.19 K, 20010 kPa | 0.00103 1/K
244.74 K, 80030 kPa | 0.000851 1/K
246.19 K, 590 kPa | 0.00112 1/K
246.19 K, 20010 kPa | 0.00104 1/K
247.21 K, 80030 kPa | 0.000847 1/K
248.17 K, 20010 kPa | 0.00104 1/K
248.17 K, 45100 kPa | 0.000942 1/K
248.19 K, 590 kPa | 0.00112 1/K
249.69 K, 80030 kPa | 0.000847 1/K
250.17 K, 20010 kPa | 0.00104 1/K
250.17 K, 45100 kPa | 0.000939 1/K
250.18 K, 590 kPa | 0.00112 1/K
252.18 K, 590 kPa | 0.00113 1/K
252.18 K, 20010 kPa | 0.00103 1/K
252.18 K, 45100 kPa | 0.000938 1/K
252.2 K, 80030 kPa | 0.000842 1/K
254.18 K, 590 kPa | 0.00113 1/K
254.18 K, 20010 kPa | 0.00103 1/K
254.18 K, 45100 kPa | 0.00094 1/K
254.72 K, 80030 kPa | 0.000837 1/K
256.17 K, 590 kPa | 0.00114 1/K
256.17 K, 20010 kPa | 0.00103 1/K
256.18 K, 45100 kPa | 0.000937 1/K
257.2 K, 80030 kPa | 0.00084 1/K
258.17 K, 590 kPa | 0.00113 1/K
258.17 K, 20010 kPa | 0.00104 1/K
258.18 K, 45100 kPa | 0.000937 1/K
259.68 K, 80030 kPa | 0.000841 1/K
260.18 K, 590 kPa | 0.00113 1/K
260.18 K, 45100 kPa | 0.000932 1/K
262.17 K, 590 kPa | 0.00114 1/K
262.17 K, 20010 kPa | 0.00103 1/K
262.17 K, 45100 kPa | 0.000936 1/K
262.21 K, 80030 kPa | 0.000841 1/K
264.17 K, 20010 kPa | 0.00103 1/K
264.17 K, 45100 kPa | 0.000938 1/K
264.77 K, 80030 kPa | 0.000839 1/K
266.17 K, 590 kPa | 0.00113 1/K
266.17 K, 20010 kPa | 0.00103 1/K
266.17 K, 45100 kPa | 0.000942 1/K
267.34 K, 80030 kPa | 0.000835 1/K
268.16 K, 20010 kPa | 0.00103 1/K
268.17 K, 590 kPa | 0.00114 1/K
268.17 K, 45100 kPa | 0.000934 1/K
269.32 K, 80030 kPa | 0.000834 1/K
270.16 K, 590 kPa | 0.00114 1/K
270.16 K, 20010 kPa | 0.00104 1/K
272.14 K, 45100 kPa | 0.00094 1/K
272.52 K, 80030 kPa | 0.000831 1/K
274.14 K, 45100 kPa | 0.000947 1/K
274.15 K, 20010 kPa | 0.00104 1/K
275.11 K, 80030 kPa | 0.000835 1/K
276.12 K, 590 kPa | 0.00114 1/K
276.14 K, 45100 kPa | 0.000938 1/K
276.15 K, 20010 kPa | 0.00104 1/K
277.69 K, 80030 kPa | 0.000835 1/K
278.13 K, 45100 kPa | 0.00094 1/K
278.15 K, 20010 kPa | 0.00104 1/K
278.16 K, 590 kPa | 0.00115 1/K
280.14 K, 45100 kPa | 0.00094 1/K
280.15 K, 20010 kPa | 0.00104 1/K
280.16 K, 590 kPa | 0.00115 1/K
280.28 K, 80030 kPa | 0.000833 1/K
282.13 K, 45100 kPa | 0.00094 1/K
282.15 K, 590 kPa | 0.00116 1/K
282.15 K, 20010 kPa | 0.00104 1/K
282.88 K, 80030 kPa | 0.000832 1/K
284.13 K, 45100 kPa | 0.000945 1/K
284.14 K, 590 kPa | 0.00116 1/K
284.14 K, 20010 kPa | 0.00104 1/K
285.53 K, 80030 kPa | 0.000829 1/K
286.15 K, 590 kPa | 0.00118 1/K
286.15 K, 20010 kPa | 0.00105 1/K
288.14 K, 45100 kPa | 0.000945 1/K
288.16 K, 590 kPa | 0.00117 1/K
288.17 K, 80030 kPa | 0.000826 1/K
289.13 K, 590 kPa | 0.00118 1/K
290.13 K, 45100 kPa | 0.000945 1/K
290.14 K, 20010 kPa | 0.00106 1/K
290.16 K, 590 kPa | 0.00117 1/K
290.79 K, 80030 kPa | 0.000832 1/K
291.13 K, 590 kPa | 0.00118 1/K
292.14 K, 45100 kPa | 0.000943 1/K
292.15 K, 20010 kPa | 0.00104 1/K
292.16 K, 590 kPa | 0.00117 1/K
293.12 K, 590 kPa | 0.00119 1/K
293.4 K, 80030 kPa | 0.000846 1/K
294.13 K, 45100 kPa | 0.000938 1/K
294.14 K, 20010 kPa | 0.00105 1/K
294.16 K, 590 kPa | 0.00118 1/K
295.12 K, 590 kPa | 0.0012 1/K
296.02 K, 80030 kPa | 0.000842 1/K
296.13 K, 45100 kPa | 0.00094 1/K
296.14 K, 20010 kPa | 0.00105 1/K
296.16 K, 590 kPa | 0.00117 1/K
297.12 K, 590 kPa | 0.00118 1/K
298.13 K, 45100 kPa | 0.000942 1/K
298.15 K, 20010 kPa | 0.00105 1/K
298.17 K, 590 kPa | 0.00118 1/K
298.65 K, 80030 kPa | 0.00085 1/K
300.16 K, 590 kPa | 0.00119 1/K
301.27 K, 80030 kPa | 0.000833 1/K
